According to PMC7411887, “New Paracyclophanylthiazoles with Anti-Leukemia Activity: Design, Synthesis, Molecular Docking, and Mechanistic Studies” (Molecules, 2020):
Read-outs that look alike come from different tables or passages of the source.

Legend:
[1] = system: HL-60(TB); assay: NCI five-dose assay; assay type: cell-based; conditions: Leukemia HL-60(TB)
[2] = system: SR; assay: NCI five-dose assay; assay type: cell-based; conditions: Leukemia SR
[3] = system: A549/ATCC; assay: NCI five-dose assay; assay type: cell-based; conditions: Non-Small-Cell Lung Cancer A549/ATCC
[4] = system: HOP-62; assay: NCI five-dose assay; assay type: cell-based, human; conditions: Non-Small-Cell Lung Cancer HOP-62
[5] = system: NCI-H226; assay: NCI five-dose assay; assay type: cell-based; conditions: Homo sapiens, Non-Small-Cell Lung Cancer NCI-H226
[6] = system: NCI-H23; assay: NCI five-dose assay; assay type: cell-based; conditions: Non-Small-Cell Lung Cancer NCI-H23
[7] = system: NCI-H522; assay: NCI five-dose assay; assay type: cell-based; conditions: Non-Small-Cell Lung Cancer NCI-H522
[8] = system: HCT-15; assay: NCI five-dose assay; assay type: cell-based; conditions: Colon Cancer HCT-15
[9] = system: KM12; assay: NCI five-dose assay; assay type: cell-based; conditions: Colon Cancer KM12
[10] = system: SW-620; assay: NCI five-dose assay; assay type: cell-based, human; conditions: Colon Cancer SW-620
[11] = system: SF-295; assay: NCI five-dose assay; assay type: cell-based; conditions: CNS Cancer SF-295
[12] = system: SNB-19; assay: NCI five-dose assay; assay type: cell-based; conditions: CNS Cancer SNB-19
[13] = system: SK-MEL-28; assay: NCI five-dose assay; assay type: cell-based; conditions: Melanoma SK-MEL-28
[14] = system: SK-MEL-5; assay: NCI five-dose assay; assay type: cell-based; conditions: Melanoma SK-MEL-5
[15] = system: UACC-257; assay: NCI five-dose assay; assay type: cell-based; conditions: Melanoma UACC-257
[16] = system: IGROV1; assay: NCI five-dose assay; assay type: cell-based; conditions: Ovarian Cancer IGROV1
[17] = system: OVCAR-8; assay: NCI five-dose assay; assay type: cell-based; conditions: Ovarian Cancer OVCAR-8
[18] = system: SK-OV-3; assay: NCI five-dose assay; assay type: cell-based; conditions: Ovarian Cancer SK-OV-3
[19] = system: A498; assay: NCI five-dose assay; assay type: cell-based; conditions: Renal Cancer A498
[20] = system: MCF7; assay: NCI five-dose assay; assay type: cell-based, human; conditions: Breast Cancer MCF7
[21] = system: Breast Cancer subpanel; assay: NCI five-dose assay, subpanel; assay type: cell-based, human; conditions: for GI50: Homo sapiens
Procedure: (§1) The outcomes were used to form log concentration vs. percentage growth inhibition curves and three response parameters (GI50, total growth inhibition (TGI), and LC50) were calculated for each cell line (Table 2).
(§2) The criterion for selectivity of a compound depends upon the ratio obtained by dividing the full-panel MID (the average sensitivity of all cell lines toward the test agent) (μM) by the individual subpanel MIDs (μM).

[22] = system: Leukemia subpanel; assay: NCI five-dose assay, subpanel; assay type: cell-based, human; conditions: for GI50: Homo sapiens
Procedure: as §1, §2

[23] = system: Melanoma subpanel; assay: NCI five-dose assay, subpanel; assay type: cell-based, human
Procedure: as §1, §2

[24] = system: Non-Small-Cell Lung Cancer subpanel; assay: NCI five-dose assay, subpanel; assay type: cell-based, human
Procedure: as §1, §2

[25] = system: Renal Cancer subpanel; assay: NCI five-dose assay, subpanel; assay type: cell-based, human
Procedure: as §1, §2

[26] = system: SR cancer cell line; assay: Annexin V/PI flow cytometry; assay type: cell-based, human; conditions: 24 h, at IC50, second value printed in the panel of Figure 11
Procedure: Figure 11 Contour diagram of annexin V/PI flow cytometry against SR cancer cell line. […] The test was repeated three times. Following incubation for 24 h, cells were analyzed by flow cytometry after double staining with annexin V/PI.

[27] = system: P-glycoprotein (Pgp) in MDR-SR Leukemia cell line; assay: Multidrug resistance assay (Pgp ELISA); assay type: cell-based, human; conditions: relative to control
[28] = Homo sapiens, read-out: GI50 Concentration/Cell Line
[29] = Homo sapiens, read-out: LC50 (the source's name)
[30] = Non-Small-Cell Lung Cancer subpanel

Question: COC(=O)C=C1SC(=NNC(=O)c2cc3ccc2CCc2ccc(cc2)CC3)N(c2ccccc2)C1=O [Compound 3a] was tested. Which GI50 [1, 28] did it give?
Answer: Its GI50 is 2.7 µM.

Question: And the CC50 [1, 29]?
Answer: The CC50 was > 100 µM.

Question: And the “TGI Concentration/Cell Line” value [1]?
Answer: Its value is >100 µM.

Question: And the GI50 [2, 28]?
Answer: Its GI50 is 2.46 µM.

Question: What about the CC50 [2, 29] of the same compound?
Answer: The CC50 was > 100 µM.

Question: And the “TGI Concentration/Cell Line” value [2]?
Answer: The value was >100 µM.

Question: And the GI50 [3, 28]?
Answer: The GI50 was 2.83 µM.

Question: What about the CC50 [3, 29] of the same compound?
Answer: Its CC50 is > 100 µM.

Question: What about the “TGI Concentration/Cell Line” value [3] of the same compound?
Answer: The value was 8.00 µM.

Question: And the GI50 [4, 28]?
Answer: Its GI50 is 2.68 µM.

Question: And the “TGI Concentration/Cell Line” value [4]?
Answer: Its value is 6.97 µM.

Question: What about the LC50 (concentration killing 50% of tumour cells) [5] of the same compound?
Answer: Its LC50 (concentration killing 50% of tumour cells) is > 100 µM.

Question: What about the GI50 ([5]; read-out: GI50 Concentration/Cell Line) of the same compound?
Answer: Its GI50 is 4.38 µM.

Question: And the LC50 (NCI lethal concentration, 50% cell kill) ([6]; Homo sapiens)?
Answer: The LC50 (NCI lethal concentration, 50% cell kill) was 8.85 µM.

Question: And the GI50 [6, 28]?
Answer: Its GI50 is 1.95 µM.

Question: And the “TGI Concentration/Cell Line” value [6]?
Answer: Its value is 4.15 µM.

Question: What about the LC50 ([7]; Homo sapiens) of the same compound?
Answer: Its LC50 is > 100 µM.

Question: What about the GI50 [7, 28] of the same compound?
Answer: The GI50 was 4.89 µM.

Question: And the “TGI Concentration/Cell Line” value [7]?
Answer: The value was >100 µM.

Question: What about the “TGI Concentration/Cell Line” value [8] of the same compound?
Answer: Its value is 4.05 µM.

Question: What about the LC50 ([8]; Homo sapiens) of the same compound?
Answer: The LC50 was 8.76 µM.

Question: And the GI50 [8, 28]?
Answer: Its GI50 is 1.87 µM.

Question: And the “TGI Concentration/Cell Line” value [9]?
Answer: Its value is 4.15 µM.

Question: And the GI50 [9, 28]?
Answer: The GI50 was 2.03 µM.

Question: And the CC50 [9, 29]?
Answer: The CC50 was 8.51 µM.

Question: And the “TGI Concentration/Cell Line” value [10]?
Answer: The value was 3.66 µM.

Question: And the LC50 (concentration killing 50% of cells) ([10]; Homo sapiens)?
Answer: The LC50 (concentration killing 50% of cells) was 7.23 µM.

Question: And the GI50 [10, 28]?
Answer: The GI50 was 1.85 µM.

Question: What about the “TGI Concentration/Cell Line” value [11] of the same compound?
Answer: The value was 4.19 µM.

Question: What about the LC50 ([11]; Homo sapiens) of the same compound?
Answer: Its LC50 is 8.5 µM.

Question: What about the GI50 [11, 28] of the same compound?
Answer: Its GI50 is 2.07 µM.

Question: What about the “TGI Concentration/Cell Line” value [12] of the same compound?
Answer: Its value is 4.25 µM.

Question: What about the LC50 (concentration killing 50% of cells) ([12]; Homo sapiens) of the same compound?
Answer: Its LC50 (concentration killing 50% of cells) is 9.26 µM.

Question: What about the GI50 [12, 28] of the same compound?
Answer: The GI50 was 1.95 µM.

Question: And the LC50 (concentration causing 50% net cell kill) ([13]; Homo sapiens)?
Answer: Its LC50 (concentration causing 50% net cell kill) is > 100 µM.

Question: And the GI50 [13, 28]?
Answer: The GI50 was 2.97 µM.

Question: What about the “TGI Concentration/Cell Line” value [13] of the same compound?
Answer: The value was 9.87 µM.

Question: And the LC50 ([14]; Homo sapiens)?
Answer: Its LC50 is > 100 µM.

Question: What about the GI50 [14, 28] of the same compound?
Answer: Its GI50 is 7.56 µM.

Question: And the “TGI Concentration/Cell Line” value [14]?
Answer: The value was >100 µM.

Question: And the LC50 ([15]; Homo sapiens)?
Answer: The LC50 was > 100 µM.

Question: And the GI50 [15, 28]?
Answer: The GI50 was 5.14 µM.

Question: What about the “TGI Concentration/Cell Line” value [15] of the same compound?
Answer: Its value is >100 µM.

Question: What about the LC50 (NCI lethal concentration, 50% net cell kill) ([16]; Homo sapiens, IGROV-1) of the same compound?
Answer: The LC50 (NCI lethal concentration, 50% net cell kill) was 6.44 µM.

Question: What about the GI50 ([16]; Homo sapiens, IGROV-1, read-out: GI50 Concentration/Cell Line) of the same compound?
Answer: The GI50 was 1.66 µM.

Question: What about the “TGI Concentration/Cell Line” value [16] of the same compound?
Answer: The value was 3.27 µM.

Question: What about the GI50 [17, 28] of the same compound?
Answer: The GI50 was 3.08 µM.

Question: What about the CC50 [17, 29] of the same compound?
Answer: Its CC50 is > 100 µM.

Question: And the “TGI Concentration/Cell Line” value [17]?
Answer: The value was >100 µM.

Question: What about the LC50 (NCI lethal concentration, 50% cell kill) ([18]; Homo sapiens) of the same compound?
Answer: The LC50 (NCI lethal concentration, 50% cell kill) was > 100 µM.

Question: And the GI50 [18, 28]?
Answer: The GI50 was 3.55 µM.

Question: What about the “TGI Concentration/Cell Line” value [18] of the same compound?
Answer: The value was 7.53 µM.

Question: What about the CC50 [19, 29] of the same compound?
Answer: The CC50 was > 100 µM.

Question: What about the “TGI Concentration/Cell Line” value [19] of the same compound?
Answer: The value was 8.36 µM.

Question: And the “TGI Concentration/Cell Line” value [20]?
Answer: Its value is 4.95 µM.

Question: And the GI50 [20, 28]?
Answer: The GI50 was 1.87 µM.

Question: And the “GI50 Selectivity Ratio (MID^a: MID^b)” value ([21]; Breast Cancer subpanel)?
Answer: Its value is 1.05.

Question: And the “TGI Selectivity Ratio (MID^c: MID^d)” value ([21]; Breast Cancer subpanel)?
Answer: The value was 0.87.

Question: What about the TGI Subpanel MID^d ([21]; Breast Cancer subpanel average) of the same compound?
Answer: Its TGI Subpanel MID^d is 24.3 µM.

Question: What about the GI50 ([21]; Breast Cancer subpanel average, read-out: GI50 Subpanel MID^b) of the same compound?
Answer: Its GI50 is 2.27 µM.

Question: And the GI50 ([21]; breast cancer subpanel, read-out: GI50 values range, subpanel)?
Answer: The GI50 was 1.54 to 1.87 µM.

Question: And the GI50 ([22]; Leukemia subpanel average, read-out: GI50 Subpanel MID^b)?
Answer: Its GI50 is 2.72 µM.

Question: What about the GI50 ([22]; leukemia subpanel, read-out: GI50 values range, subpanel) of the same compound?
Answer: Its GI50 is 2.15 to 3.15 µM.

Question: What about the “GI50 Selectivity Ratio (MID^a: MID^b)” value ([22]; Leukemia subpanel) of the same compound?
Answer: The value was 0.88.

Question: And the TGI Subpanel MID^d ([22]; Leukemia subpanel average)?
Answer: The TGI Subpanel MID^d was 81.1 µM.

Question: What about the GI50 ([23]; Homo sapiens, Melanoma subpanel average, read-out: GI50 Subpanel MID^b) of the same compound?
Answer: Its GI50 is 3.77 µM.

Question: What about the “GI50 Selectivity Ratio (MID^a: MID^b)” value ([23]; Melanoma subpanel) of the same compound?
Answer: The value was 0.63.

Question: What about the “TGI Selectivity Ratio (MID^c: MID^d)” value ([23]; Melanoma subpanel) of the same compound?
Answer: Its value is 0.58.

Question: And the TGI Subpanel MID^d ([23]; Melanoma subpanel average)?
Answer: Its TGI Subpanel MID^d is 36.5 µM.

Question: And the GI50 ([24]; Homo sapiens, Non-Small-Cell Lung Cancer subpanel average, read-out: GI50 Subpanel MID^b)?
Answer: Its GI50 is 2.74 µM.

Question: What about the “GI50 Selectivity Ratio (MID^a: MID^b)” value [24, 30] of the same compound?
Answer: The value was 0.87.

Question: And the “TGI Selectivity Ratio (MID^c: MID^d)” value [24, 30]?
Answer: Its value is 1.31.

Question: What about the TGI Subpanel MID^d ([24]; Non-Small-Cell Lung Cancer subpanel average) of the same compound?
Answer: The TGI Subpanel MID^d was 16.1 µM.

Question: And the GI50 ([25]; Homo sapiens, Renal Cancer subpanel average, read-out: GI50 Subpanel MID^b)?
Answer: The GI50 was 1.86 µM.

Question: And the “GI50 Selectivity Ratio (MID^a: MID^b)” value ([25]; Renal Cancer subpanel)?
Answer: Its value is 1.28.

Question: What about the “TGI Selectivity Ratio (MID^c: MID^d)” value ([25]; Renal Cancer subpanel) of the same compound?
Answer: Its value is 1.27.

Question: What about the TGI Subpanel MID^d ([25]; Renal Cancer subpanel average) of the same compound?
Answer: Its TGI Subpanel MID^d is 16.6 µM.

Question: And the “percentage of cells in late apoptosis (upper right quadrant)” value [26]?
Answer: Its value is 19%.

Question: And the “Pgp-Mediated MDR Fold Change” value [27]?
Answer: Its value is 1.15 fold.
